What follows are molecules tested against human P2X7 receptor (Homo sapiens, UniProt Q99572, R270H/Y155H) (assay: Evaluation of human P2X7 receptor inhibitory activity (Yo-Pro uptake, BzATP stimulation, FLIPR TETRA)). Details: 1321N1 cells stably expressing human P2X7 receptor; BzATP stimulation, Yo-Pro uptake; read-out: IC50 (antagonistic activity for the human P2X7 receptor).
Format: cell-based
Summary of the method: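 1321N1 cells stably expressing human P2X7 (T606C/G952A SNP variant), in HBSS buffer pH 7.4-7.5 with Yo-Pro, stimulated with BzATP; compound added 8 min after agonist. Fluorescence followed for 20 min on FLIPR; max-minus-min change gave % inhibition, IC50 by logistic fit.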
`COc1cn(Cc2cc(F)cc(F)c2)c(Nc2ccc3c(c2C)COC3)nc1=O` [Compound I-0900] gave an IC50 of 12 nM. `COc1cn(Cc2ccc(F)c(Cl)c2)c(Nc2cc3c(cc2C)OCC=C3)nc1=O` [Compound I-0912] was tested, and the IC50 was 22 nM. In the case of `COc1cn(Cc2ccc(F)c(Cl)c2)c(Nc2cc3c(cc2C)OCCC3)nc1=O` [Compound I-0914], the IC50 is reported as 22 nM. `COc1cn(Cc2cc(F)cc(F)c2)c(Nc2cc(C)c(OC(F)(F)F)cc2C)nc1=O` [Compound I-0924] gave an IC50 of 17 nM. `COc1cn(Cc2cc(F)cc(F)c2)c(Nc2c(C)ccc(C)c2F)nc1=O` [Compound I-0928] gave an IC50 of 10 nM. Work on `COc1cn(Cc2cc(F)c(F)c(F)c2)c(Nc2cc3scnc3cc2C)nc1=O` [Compound I-0935] yielded an IC50 of 6 nM. Molecule `COc1cn(Cc2cc(F)c(F)c(F)c2)c(Nc2ccc3[nH]ccc3c2C)nc1=O` [Compound I-0939] has an IC50 of 4 nM. With `COc1cn(Cc2cc(F)c(F)c(F)c2)c(Nc2cc3sc(C)nc3cc2C)nc1=O` [Compound I-0940] the IC50 was 240 nM. `COc1cn(Cc2ccc(F)c(Cl)c2)c(Nc2cc3cc[nH]c3cc2C)nc1=O` [Compound I-0941] gave an IC50 of 12 nM. Molecule `COc1cn(Cc2cc(F)c(F)c(F)c2)c(Oc2cc(-c3ncco3)ccc2C)nc1=O` [Compound I-0942] has an IC50 of 230 nM. `COc1cc(C)c(Nc2cc(=O)c(OC)cn2Cc2ccccc2)cc1C` [Compound I-0945] showed an IC50 of 170 nM.

Same assay, conditions: antagonistic activity for the human P2X7 receptor; read-out: IC50
Work on `COc1cn(Cc2ccccc2)c(Nc2cc(OC(F)F)ccc2C)nc1=O` [Compound I-0870] yielded an IC50 of 10 to 100 nM. With `COc1cn(Cc2ccc(F)c(Cl)c2)c(Nc2cc(OC(F)F)ccc2C)nc1=O` [Compound I-0871] the IC50 was 10 to 100 nM. For `COc1cn(Cc2cc(F)cc(Cl)c2)c(Nc2cc(OC(F)F)ccc2C)nc1=O` [Compound I-0872], the IC50 was 10 to 100 nM. For `COc1cn(Cc2ccc(F)c(F)c2)c(Nc2cc(OC(F)F)ccc2C)nc1=O` [Compound I-0873], the IC50 was 10 to 100 nM. `COc1cn(Cc2cc(F)cc(F)c2)c(Nc2cc(OC(F)F)ccc2C)nc1=O` [Compound I-0874] was tested, and the IC50 was 10 to 100 nM. Molecule `COc1cn(Cc2ccccc2)c(Nc2cc(OC(F)F)c(C)cc2C)nc1=O` [Compound I-0875] has an IC50 of 10 to 100 nM. `COc1cn(Cc2ccc(F)c(Cl)c2)c(Nc2cc(OC(F)F)c(C)cc2C)nc1=O` [Compound I-0876] showed an IC50 of under 10 nM. `COc1cn(Cc2cc(F)cc(Cl)c2)c(Nc2cc(OC(F)F)c(C)cc2C)nc1=O` [Compound I-0877] gave an IC50 of 10 to 100 nM. `COc1cn(Cc2ccc(F)c(F)c2)c(Nc2cc(OC(F)F)c(C)cc2C)nc1=O` [Compound I-0878] gave an IC50 of under 10 nM. `COc1cn(Cc2cc(F)cc(F)c2)c(Nc2cc(OC(F)F)c(C)cc2C)nc1=O` [Compound I-0879] showed an IC50 of under 10 nM. In the case of `COc1cn(Cc2ccc(F)c(Cl)c2)c(Nc2cccc3c2ccc(=O)n3C)nc1=O` [Compound I-0881], the IC50 is reported as 100 to 500 nM. `COc1cn(Cc2cc(F)cc(F)c2)c(Nc2cccc3c2ccc(=O)n3C)nc1=O` [Compound I-0882] gave an IC50 of 500 to 1000 nM. `COc1cn(Cc2ccccc2)c(Nc2cc(N3CCCC3)ccc2C)nc1=O` [Compound I-0883] gave an IC50 of 10 to 100 nM. In the case of `COc1cn(Cc2ccc(F)c(Cl)c2)c(Nc2cc(N3CCCC3)ccc2C)nc1=O` [Compound I-0884], the IC50 is reported as 10 to 100 nM. Work on `COc1cn(Cc2cc(F)cc(F)c2)c(Nc2cc(N3CCCC3)ccc2C)nc1=O` [Compound I-0885] yielded an IC50 of 10 to 100 nM. Molecule `COc1cn(Cc2ccccc2)c(Nc2cc(F)c(Cl)cc2C)nc1=O` [Compound I-0886] has an IC50 of 10 to 100 nM. With `COc1cn(Cc2ccc(F)c(Cl)c2)c(Nc2cc(F)c(Cl)cc2C)nc1=O` [Compound I-0887] the IC50 was 10 to 100 nM. `COc1cn(Cc2ccccc2)c(Nc2cc(OC3CC3)ccc2C)nc1=O` [Compound I-0888] showed an IC50 of 10 to 100 nM. In the case of `COc1cn(Cc2ccc(F)c(Cl)c2)c(Nc2cc(OC3CC3)ccc2C)nc1=O` [Compound I-0889], the IC50 is reported as under 10 nM. `COc1cn(Cc2ccc(F)c(F)c2)c(Nc2cc(OC3CC3)ccc2C)nc1=O` [Compound I-0890] showed an IC50 of 10 to 100 nM. `COc1cn(Cc2cc(F)cc(Cl)c2)c(Nc2cc(OC3CC3)ccc2C)nc1=O` [Compound I-0891] gave an IC50 of 10 to 100 nM. `COc1cn(Cc2cc(F)cc(F)c2)c(Nc2cc(OC3CC3)ccc2C)nc1=O` [Compound I-0892] was tested, and the IC50 was 10 to 100 nM. Molecule `CCOc1cn(Cc2ccccc2)c(Nc2cc(OC)c(OC)cc2CC)nc1=O` [Compound I-0893] has an IC50 of under 10 nM. Work on `COc1cn(Cc2cc(F)c(F)c(F)c2)c(Nc2cc(-n3cccc3)ccc2C)nc1=O` [Compound I-0894] yielded an IC50 of under 10 nM. For `COc1cn(Cc2ccccc2)c(Nc2cc(Oc3ccccn3)ccc2C)nc1=O` [Compound I-0895], the IC50 was 10 to 100 nM. `COc1cn(Cc2ccc(F)c(Cl)c2)c(Nc2cc(Oc3ccccn3)ccc2C)nc1=O` [Compound I-0896] gave an IC50 of under 10 nM. `COc1cn(Cc2cc(F)cc(F)c2)c(Nc2cc(Oc3ccccn3)ccc2C)nc1=O` [Compound I-0897] showed an IC50 of under 10 nM. `COc1cn(Cc2ccc(F)cc2)c(Nc2cc(Oc3ccccn3)ccc2C)nc1=O` [Compound I-0898] gave an IC50 of 10 to 100 nM. With `COc1cn(Cc2cc(F)c(F)c(F)c2)c(Nc2cc(Oc3ccccn3)ccc2C)nc1=O` [Compound I-0899] the IC50 was under 10 nM. `COc1cn(Cc2ccccc2)c(Nc2cccc3c(=O)n(C)ccc23)nc1=O` [Compound I-0901] showed an IC50 of 100 to 500 nM. Molecule `COc1cn(Cc2ccc(F)c(Cl)c2)c(Nc2cccc3c(=O)n(C)ccc23)nc1=O` [Compound I-0902] has an IC50 of 10 to 100 nM. `COc1cn(Cc2ccc(F)c(F)c2)c(Nc2cccc3c(=O)n(C)ccc23)nc1=O` [Compound I-0903] gave an IC50 of 10 to 100 nM. `COc1cn(Cc2cc(F)cc(Cl)c2)c(Nc2cccc3c(=O)n(C)ccc23)nc1=O` [Compound I-0904] showed an IC50 of 10 to 100 nM. `COc1cn(Cc2cc(F)cc(F)c2)c(Nc2cccc3c(=O)n(C)ccc23)nc1=O` [Compound I-0905] gave an IC50 of 100 to 500 nM. With `COc1cn(Cc2ccc(F)c(Cl)c2)c(Nc2cc3c(cc2C)COC3)nc1=O` [Compound I-0906] the IC50 was 10 to 100 nM. With `COc1cn(Cc2ccc(F)c(Cl)c2)c(Nc2ccc3c(c2C)COC3)nc1=O` [Compound I-0907] the IC50 was under 10 nM. For `CCc1cc(OC)c(OC)cc1Nc1nc(=O)c(OC)cn1Cc1cc(F)c(F)c(F)c1` [Compound I-0908], the IC50 was under 10 nM. For `CCOc1cn(Cc2ccc(F)c(Cl)c2)c(Nc2cc(OC)c(OC)cc2CC)nc1=O` [Compound I-0909], the IC50 was 10 to 100 nM. `COc1cn(Cc2cc(F)c(F)c(F)c2)c(Nc2ccc3c(c2C)COC3)nc1=O` [Compound I-0911] was tested, and the IC50 was 10 to 100 nM. For `COc1cn(Cc2cc(F)cc(F)c2)c(Nc2cc3c(cc2C)OCCC3)nc1=O` [Compound I-0913], the IC50 was 10 to 100 nM. For `C#Cc1cc(Nc2nc(=O)c(OC)cn2Cc2cc(F)cc(F)c2)c(C)cc1F` [Compound I-0915], the IC50 was 10 to 100 nM. In the case of `C#Cc1cc(Nc2nc(=O)c(OC)cn2Cc2ccc(F)c(Cl)c2)c(C)cc1F` [Compound I-0916], the IC50 is reported as 10 to 100 nM. `COc1cn(Cc2cc(F)c(F)c(F)c2)c(Nc2cc3c(cc2C)OCCC3)nc1=O` [Compound I-0917] gave an IC50 of 10 to 100 nM. `CCOc1cc(Nc2nc(=O)c(OC)cn2Cc2ccccc2)c(C)cc1F` [Compound I-0918] gave an IC50 of 10 to 100 nM. Work on `CCOc1cc(Nc2nc(=O)c(OC)cn2Cc2ccc(F)c(Cl)c2)c(C)cc1F` [Compound I-0919] yielded an IC50 of 10 to 100 nM. Molecule `CCOc1cc(Nc2nc(=O)c(OC)cn2Cc2cc(F)cc(F)c2)c(C)cc1F` [Compound I-0920] has an IC50 of 10 to 100 nM. `CCOc1cc(Nc2nc(=O)c(OC)cn2Cc2cc(F)c(F)c(F)c2)c(C)cc1F` [Compound I-0921] showed an IC50 of under 10 nM. `COc1cn(Cc2ccccc2)c(Nc2cc(C)c(OC(F)(F)F)cc2C)nc1=O` [Compound I-0922] gave an IC50 of under 10 nM. `COc1cn(Cc2ccc(F)c(Cl)c2)c(Nc2cc(C)c(OC(F)(F)F)cc2C)nc1=O` [Compound I-0923] showed an IC50 of 10 to 100 nM. Work on `COc1cn(Cc2cc(F)c(F)c(F)c2)c(Nc2cc(C)c(OC(F)(F)F)cc2C)nc1=O` [Compound I-0925] yielded an IC50 of 10 to 100 nM. `COc1cn(Cc2ccccc2)c(Nc2c(C)ccc(C)c2F)nc1=O` [Compound I-0926] was tested, and the IC50 was 10 to 100 nM. `COc1cn(Cc2ccc(F)c(Cl)c2)c(Nc2c(C)ccc(C)c2F)nc1=O` [Compound I-0927] gave an IC50 of under 10 nM. `COc1cn(Cc2cc(F)c(F)c(F)c2)c(Nc2c(C)ccc(C)c2F)nc1=O` [Compound I-0929] was tested, and the IC50 was under 10 nM. With `COc1cn(Cc2ccc(F)c(Cl)c2)c(Nc2cc3c(cc2C)OCCC3=O)nc1=O` [Compound I-0930] the IC50 was 100 to 500 nM. `COc1cn(Cc2cc(F)c(F)c(F)c2)c(Nc2cc(N3CCOCC3)ccc2C)nc1=O` [Compound I-0931] showed an IC50 of 10 to 100 nM. With `COc1cn(Cc2cc(F)c(F)c(F)c2)c(Nc2cc(OCC(F)(F)F)ccc2C)nc1=O` [Compound I-0932] the IC50 was 10 to 100 nM. `COc1cn(Cc2cc(F)c(F)c(F)c2)c(Nc2ccc(Oc3ccnc(F)c3)cc2C)nc1=O` [Compound I-0933] was tested, and the IC50 was 100 to 500 nM. In the case of `COc1cn(Cc2cc(F)c(F)c(F)c2)c(Nc2cc3sc(C(F)F)nc3cc2C)nc1=O` [Compound I-0934], the IC50 is reported as 10 to 100 nM. Molecule `COc1ccc(C)cc1Nc1nc(=O)c(OC)cn1Cc1cc(F)c(F)c(F)c1` [Compound I-0936] has an IC50 of 10 to 100 nM. In the case of `Cc1nc2cc(C)c(Nc3nc(=O)c(F)cn3Cc3cc(F)c(F)c(F)c3)cc2s1` [Compound I-0937], the IC50 is reported as under 10 nM. With `COc1cn(Cc2cc(F)c(F)c(F)c2)c(Nc2cc3cc[nH]c3cc2C)nc1=O` [Compound I-0938] the IC50 was under 10 nM. `COc1cn(Cc2cc(F)c(F)c(F)c2)c(Nc2ccc(OCF)cc2C)nc1=O` [Compound I-0943] gave an IC50 of under 10 nM. `COc1ccc(Nc2cc(=O)c(OC)cn2Cc2ccc(F)c(Cl)c2)c(C)c1` [Compound I-0944] was tested, and the IC50 was 100 to 500 nM. `COc1cn(Cc2ccccc2)c(Nc2cc(C)c(F)cc2C)cc1=O` [Compound I-0946] was tested, and the IC50 was 500 to 1000 nM. `COc1ccc(C)c(Nc2cc(=O)c(OC)cn2Cc2ccc(F)c(Cl)c2)c1` [Compound I-0947] gave an IC50 of 10 to 100 nM. For `COc1cn(Cc2ccc(F)c(Cl)c2)c(Nc2cc(C)c(OC(F)F)cc2C)cc1=O` [Compound I-0948], the IC50 was 10 to 100 nM. `COc1cn(Cc2ccc(F)c(Cl)c2)c(Nc2cc(C)c(Cl)cc2C)cc1=O` [Compound I-0949] was tested, and the IC50 was 100 to 500 nM.

Reference: patent US10774051B2, “6-membered heterocyclic derivatives and pharmaceutical composition comprising the same” (Shionogi & Co., Ltd., priority 2015, dated 2020)
